Experimental findings from patent publication US20100081200A1, “FORMULATIONS AND METHODS FOR CULTURING STEM CELLS” (priority 2007, published 2010) are described below.

For assay [1], the system named is hESCs (Regea 07/046, HS401). Put plainly: Retinol: proliferation and expression of stem cell markers. In kind it is cell-based, human. As to the method: FIG. 10A) Bright-field microscopic image of hESCs (Regea 07/046) at day 3 cultured in the present culture medium without retinol for 5 passages. FIG. 10B) Bright-field microscopic image of hESCs (Regea 07/046) at day 3 cultured in the present culture medium containing 2.0 μM retinol for 5 passages. The size of the colonies is larger in the presence of retinol when compared to the colonies cultured without retinol. Scale bar 500 μm. FIGS. 10C-D) Fluorescent microscopic image of hESCs (HS401) cultured in the present culture medium containing 2.0 μM retinol for 12 passages showing positive expression of
Nanog and TRA-1-81. Insets represent DAPI staining. Scale bar 200 μm. FIG. 10E) Cell proliferation analysis of hESC line Regea 07/046 cultured in the present culture medium without and in the presence of 0.5, 2.0 and 3.5 μM retinol for 10 passages. FIG. 10F) Quantitative RT-PCR analysis of Oct4, GDF3, DNMT3B, TDGF1 and Nanog expression in hESC line Regea 07/046 cultured in the present culture medium without and in the presence of 0.5, 2.0 and 3.5 μM retinol for 10 passages.
Retinol was selected to be further evaluated in the maintenance of undifferentiated hESCs. […] In the presence of 2.0 μM retinol, the growth of the colonies started earlier and already at day 3 the size of the colonies was bigger (FIG. 10A-10B).

Assay [2] relates to human embryonic stem cells. Put plainly: Effect of different vitamins on the undifferentiated growth of human embryonic stem cells. In kind it is cell-based. Conditions: for effect on undifferentiated growth / number of undifferentiated colonies (in words): retinol 20 μM, nicotinamide 5 mM and 10 mM, Vitamin Mix 1%. As to the method:
The effect of different vitamins on the undifferentiated growth of human embryonic stem cells was tested by providing retinol (20 μM), nicotinamide (5 mM and 10 mM) or commercial Vitamin Mix (1%) containing nicotinamide but not retinol (MEM Vitamin Solution (100x), cat. No. 11120-037, provided by Gibco/Invitrogen) to human embryonic stem cells (Table 1). […] Vitamin Mix had no effect on the undifferentiated growth of embryonic stem cells.
Accordingly, the serum replacement according to some embodiments of the present invention is a xeno-free formulation comprising at least retinol. In some embodiments, the concentration range of retinol in the serum replacement is such that the final culture medium comprises from about 0.25 mg/l to about 0.5 mg/l, more specifically about 0.57 mg/l retinol. Accordingly, in embodiments wherein basal medium is to be supplemented with 20% (vol/vol) serum replacement, said serum replacement comprises retinol from about 1.25 mg/l to about 2.5 mg/l, more specifically about 2.85 mg/l.

The test system of assay [3] is hESC colonies (HS401 cell line). Nature of the assay: Lipids and lipid derivatives: classification of hESC colonies as undifferentiated, partly differentiated, differentiated. In kind it is cell-based, human. The source says: (§1) FIGS. 9A-9B show the morphology and differentiation stage of hESCs cultured in the present culture medium and in the presence of lipids and lipid derivatives. UD, PD and DIFF represent undifferentiated, partly differentiated and differentiated hESC colonies, respectively. FIG. 9A) HS401 cell line cultured in the present culture medium supplemented with different lipids and lipid derivatives. FIG. 9B) HS401 cell line cultured in control hES medium supplemented with different lipids and lipid derivatives.
Furthermore, the hESC colonies were classified into three categories; undifferentiated, partly differentiated and differentiated. Number of each colony type was calculated before each passaging. Later, a percentage value for each colony type of the total amount of colonies was calculated (FIG. 9).

In another assay the test system is hESCs (HS401 cell line). Put plainly: Lipids and lipid derivatives: visual evaluation of morphology, size and thickness of undifferentiated colonies. In kind it is cell-based, human. As to conditions: for morphology of the undifferentiated colonies (in words): in both hES medium and the present culture medium.
Text: as §1
Various lipids and lipid derivatives were tested in the culture medium (RegES) according to some embodiments of the present invention and in the conventional hES culture medium containing KO-SR (Knockout serum replacement, Invitrogen). General morphology, as well as the size and thickness of the undifferentiated colonies were evaluated before each passaging based on visual perceptions (Table 7).

Another assay deals with hESC line Regea 07/046. Nature of the assay: Activin A: proliferation assay, FACS and qRT-PCR of pluripotency markers. It is filed as cell-based, human. As to the method: FIG. 11B) Quantitative RT-PCR analysis of Nanog, Oct4, GDF3, DNMT3B, GABRB3 and GDF3 expression in hESC line Regea 07/046 cultured in the present culture medium without and in the presence of 5 ng/ml and 10 ng/ml Activin A and hES control medium for 10 passages. FIG. 11C) FACS analysis of SSEA4 and TRA-1-60 stem cell markers of hESC line Regea 07/046 cultured in the present culture medium without and in the presence of 5 ng/ml and 10 ng/ml Activin A and hES control medium for 10 passages.

The mark [4] stands for this setting: in hES culture medium, compared to control hES medium.
[5] abbreviates: in the present culture medium, compared to control hES or Albumax-RegES medium.

Take `CC1=C(/C=C/C(C)=C/C=C/C(C)=C/CO)C(C)(C)CCC1` [Retinol, retinol]: the “Nanog relative expression level” value in assay [1] (2.0 μM and 3.5 μM, qRT-PCR) is recorded as “over twentyfold”. Moreover, in assay [1] (2.0 μM or 3.5 μM, compared to without retinol or 0.5 μM), the proliferation rate result was “almost two-fold”. Moreover, the “proliferation of hESCs and expression of hESC specific markers” value in assay [1] (2.0 μM or above) is recorded as “improved the proliferation of hESCs as well as induced the expression of hESC specific markers”. Besides, in assay [1] (2.0 μM, day 3), the “size of the colonies” value is listed as “bigger”. The “morphology and number of undifferentiated colonies” value in assay [1] (0.1-0.5 μM) is “not effective”. Also, the “immunocytochemical staining of Nanog and TRA-1-81” value in assay [1] (cultured in the presence of retinol) was “showed expression of stem cell markers Nanog and TRA-1-81”. For the same compound, the “maintaining stem cells in an undifferentiated state” value in assay [2] (2 μM) is “effective”. In addition, the “effect on undifferentiated growth / number of undifferentiated colonies (in words)” value in assay [2] is reported as “increased the number of undifferentiated colonies considerably”. The “number of undifferentiated and differentiated colonies” value was “number of undifferentiated colonies increased and the number of differentiated colonies decreased” in assay [3] (setting [4]); “number of undifferentiated colonies increased and the number of differentiated colonies decreased” in assay [3] (setting [5]). Also, the “morphology of the undifferentiated colonies (in words)” value with hESCs (HS401 cell line) was “improved the morphology”.
Regarding `CCCCC[C@H](O)/C=C/[C@@H]1[C@@H](C/C=C\CCCC(=O)O)[C@@H](O)C[C@H]1O` [Prostaglandin F2], the Morphology result is “++” in the assay with hESCs (HS401 cell line) (RegES medium, 50 ng/ml) and “− (excess differentiation of the colonies, poor morphology)” with hESCs (HS401 cell line) (hES medium, 50 ng/ml). For the same compound, the “morphology (in words)” value in the assay on hESCs (HS401 cell line) (in hES culture medium) is on record as “poor morphology and/or excess differentiation”; in the assay on hESCs (HS401 cell line) (in the present culture medium) it was “satisfying morphology”.
As to `NC(=O)c1cccnc1` [Nicotinamide, nicotinamide], the “effect on undifferentiated growth / number of undifferentiated colonies (in words)” value in assay [2] is reported as “promoting their differentiation”.
With `CCCCC[C@H](O)/C=C/[C@H]1[C@H](O)CC(=O)[C@@H]1C/C=C\CCCC(=O)O` [Prostaglandin E2], the Morphology result is reported as “− (excess differentiation of the colonies, poor morphology)” in the assay on hESCs (HS401 cell line) (RegES medium, 50 ng/ml) and “+ (poor morphology, uneven edges in the colonies, thin and/or small colonies)” in the assay on hESCs (HS401 cell line) (hES medium, 50 ng/ml).
For Lysophosphatidylcholine, the Morphology entry with hESCs (HS401 cell line) (RegES medium, 5 μg/ml) is listed as “++”; with hESCs (HS401 cell line) (hES medium, 5 μg/ml), “− (excess differentiation of the colonies, poor morphology)”. In addition, the “morphology (in words)” value with hESCs (HS401 cell line) (in hES culture medium) is listed as “poor morphology and/or excess differentiation”; with hESCs (HS401 cell line) (in the present culture medium), “satisfying morphology”.
Take `CC/C=C\C/C=C\C/C=C\CCCCCCCC(=O)O` [Alfa-linoleic acid]: the Morphology result in the assay with hESCs (HS401 cell line) (RegES medium, 5 μg/ml) is given as “−/− (excess differentiation of the colonies, poor morphology)”; in the assay on hESCs (HS401 cell line) (hES medium, 5 μg/ml), “−/− (excess differentiation of the colonies, poor morphology)”.
With `CCCCC/C=C\C/C=C\CCCCCCCC(=O)O` [Linoleic acid], in assay [3] (setting [5]), the “number of undifferentiated and differentiated colonies” value was “number of undifferentiated colonies increased and the number of differentiated colonies decreased”. Also, in the assay on hESCs (HS401 cell line), the “morphology of the undifferentiated colonies (in words)” value is given as “improved the morphology”.
Turning to `CC(C)NCC(O)c1ccc(O)c(O)c1` (racemic) [DL-isoproterenol, reference compound], the “number of undifferentiated and differentiated colonies” value in assay [3] (setting [5]) was “number of undifferentiated colonies increased and the number of differentiated colonies decreased”. Further, the Morphology result with hESCs (HS401 cell line) (RegES medium, 0.1 mg/ml) was “++”; in the assay on hESCs (HS401 cell line) (hES medium, 0.1 mg/ml), “+ (poor morphology, uneven edges in the colonies, thin and/or small colonies)”. In addition, the entries for the “morphology (in words)” value in the assay with hESCs (HS401 cell line) (in hES culture medium) and in the assay on hESCs (HS401 cell line) (in the present culture medium) were “poor morphology and/or excess differentiation” and “satisfying morphology”, respectively.
Turning to `CCCCC/C=C\C/C=C\C/C=C\C/C=C\CCCC(=O)O` [Arachidonic acid], the “number of undifferentiated and differentiated colonies” value in assay [3] (setting [4]) was “number of undifferentiated colonies increased and the number of differentiated colonies decreased”.
For Phosphatidylcholine, the “number of undifferentiated and differentiated colonies” value in assay [3] (setting [4]) is “number of undifferentiated colonies increased and the number of differentiated colonies decreased”. Further, the Morphology entry with hESCs (HS401 cell line) (RegES medium, 2.5 μg/ml) is reported as “− (excess differentiation of the colonies, poor morphology)”; in the assay with hESCs (HS401 cell line) (hES medium, 2.5 μg/ml), “++”.
On to `CC(C)CCC[C@@H](C)[C@H]1CC[C@H]2[C@@H]3CC=C4C[C@@H](O)CC[C@]4(C)[C@H]3CC[C@]12C` [Cholesterol], for which the “number of undifferentiated and differentiated colonies” value in assay [3] (setting [4]) is “number of undifferentiated colonies increased and the number of differentiated colonies decreased”.
Take `CCCCCC/C=C\CCCCCCCC(=O)O` [Palmitoleic acid]: the “number of undifferentiated and differentiated colonies” value in assay [3] (setting [5]) was “number of undifferentiated colonies increased and the number of differentiated colonies decreased”. Besides, the “morphology of the undifferentiated colonies (in words)” value in the assay with hESCs (HS401 cell line) is “improved the morphology”.
As for Phosphatidylethanolamine, the Morphology entry with hESCs (HS401 cell line) (RegES medium, 5 μg/ml) is recorded as “++”; in the assay on hESCs (HS401 cell line) (hES medium, 5 μg/ml), “− (excess differentiation of the colonies, poor morphology)”. In addition, the entries for the “morphology (in words)” value in the assay with hESCs (HS401 cell line) (in hES culture medium) and in the assay with hESCs (HS401 cell line) (in the present culture medium) were “poor morphology and/or excess differentiation” and “satisfying morphology”, respectively.
As for `CCCCCCCCCCCCCCCCCC(=O)O` [Stearic acid], the “number of undifferentiated and differentiated colonies” value in assay [3] (setting [5]) is “number of undifferentiated colonies increased and the number of differentiated colonies decreased”. In addition, the “morphology (in words)” value in the assay with hESCs (HS401 cell line) (in hES culture medium) is recorded as “poor morphology and/or excess differentiation”; with hESCs (HS401 cell line) (in the present culture medium) it was “satisfying morphology”.
For the compound `CCCCC/C=C\C/C=C\C/C=C\CCCCC(=O)O` [Gamma-linoleic acid], the Morphology entry is reported as “− (excess differentiation of the colonies, poor morphology)” in the assay on hESCs (HS401 cell line) (RegES medium, 2.5 μg/ml) and “++” with hESCs (HS401 cell line) (hES medium, 2.5 μg/ml).
Turning to “Activin A: Activin A, growth factor supplement of the culture medium”, the proliferation rate entry in the assay on hESC line Regea 07/046 (5 or 10 ng/ml in the present culture medium, compared to without Activin A) was “almost two-fold”. The “expression of pluripotency supporting markers” value in the assay with hESC line Regea 07/046 (FACS and qRT-PCR, transcriptional and translational level) was “increased the expression”.
Regarding Conjugated linoleic acid, the “number of undifferentiated and differentiated colonies” value in assay [3] (setting [4]) is “number of undifferentiated colonies increased and the number of differentiated colonies decreased”; in assay [3] (setting [5]) it was “number of undifferentiated colonies increased and the number of differentiated colonies decreased”. Besides, the Morphology result with hESCs (HS401 cell line) (RegES medium, 5 μg/ml) is “++”; in the assay with hESCs (HS401 cell line) (hES medium, 5 μg/ml) it was “+++ (nice morphology, even, thick and big colonies)”. The “morphology of the undifferentiated colonies (in words)” value with hESCs (HS401 cell line) is recorded as “improved the morphology”.
